# Test results reported in patent US20240270821A1, “GIP/GLP1/GCG TRI-RECEPTOR AGONISTS AND USES THEREOF” (priority 2023, published 2024).
# Starred links: 1 amine or outer side, 2 acyl side, 3 side chain; linkers in the order of their positions; H or OH if unused. Non-standard residues stand in square brackets, D forms with d. Groups on a side chain read outwards from the residue. No end group written: not given here. *: point of attachment. C20 diacid = O=C(O)CCCCCCCCCCCCCCCCCCC(=O)*; C18 diacid = O=C(O)CCCCCCCCCCCCCCCCC(=O)*; γGlu = O=C(O)[C@H](CCC(=O)[*:2])N[*:1]; NMeY = CN[C@@H](Cc1ccc(O)cc1)C(=O)O; αMe4Pal = C[C@](N)(Cc1ccncc1)C(=O)O; αMeY = C[C@](N)(Cc1ccc(O)cc1)C(=O)O; αMeF = C[C@](N)(Cc1ccccc1)C(=O)O; 4Pal = N[C@@H](Cc1ccncc1)C(=O)O; αMeL = CC(C)C[C@](C)(N)C(=O)O; Orn = NCCC[C@H](N)C(=O)O; AEEA = NCCOCCOCC(=O)O; Aib = CC(C)(N)C(=O)O
# Tests used:
# Type in all cases: cell-based
# hGLP-1R [1] = target: T1, hGLP-1R (Homo sapiens, UniProt P43220); assay: Functional cAMP activation in the presence of 0.1% casein (no HSA); conditions: in the presence of 0.1% casein (no HSA); geometric mean; read-out: Relative cAMP EC50, hGLP-1R;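 also: intracellular cAMP rise after 30 min at 37 °C read by HTRF, normalized between buffer only (0%) and maximal control ligand (100%), four-parameter variable-slope fit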
# hGIPR [2] = target: T2, hGIPR (Homo sapiens, UniProt P48546); assay: Functional cAMP activity in the presence of 1% HSA; conditions: read-out: cAMP Rel EC50, hGIPR
# T2 sequence (P48546 22-466): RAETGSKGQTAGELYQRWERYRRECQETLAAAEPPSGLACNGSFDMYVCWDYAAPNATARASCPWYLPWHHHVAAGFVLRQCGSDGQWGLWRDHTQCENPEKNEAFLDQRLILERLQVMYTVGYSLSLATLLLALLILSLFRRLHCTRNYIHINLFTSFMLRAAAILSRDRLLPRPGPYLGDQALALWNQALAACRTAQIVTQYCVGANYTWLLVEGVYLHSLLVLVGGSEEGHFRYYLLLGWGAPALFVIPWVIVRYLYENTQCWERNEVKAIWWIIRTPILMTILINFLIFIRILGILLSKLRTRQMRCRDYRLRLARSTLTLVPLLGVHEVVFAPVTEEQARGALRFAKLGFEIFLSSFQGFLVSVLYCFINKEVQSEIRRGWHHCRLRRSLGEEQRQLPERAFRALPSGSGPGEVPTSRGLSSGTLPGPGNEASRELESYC
# hGcgR = hGcgR (Homo sapiens, UniProt P47871); assay: Functional cAMP activation in the presence of 0.1% casein (no HSA); conditions: in the presence of 0.1% casein (no HSA); geometric mean; read-out: Relative cAMP EC50, hGcgR;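 also: intracellular cAMP rise after 30 min at 37 °C, read by HTRF against a cAMP standard curve, scaled from buffer only (0%) to maximal control ligand response (100%)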
# hGLP-1R [3] = target: T1, hGLP-1R; assay: Functional cAMP activity in the presence of 1% HSA; conditions: read-out: cAMP Rel EC50, hGLP-1R
# human GcgR = human GcgR (Homo sapiens, UniProt P47871); assay: Functional cAMP activity in the presence of 1% HSA; conditions: read-out: cAMP Rel EC50, hGcgR
# hGIPR [4] = target: T2, hGIPR; assay: Functional cAMP activation in the presence of 0.1% casein (no HSA); conditions: in the presence of 0.1% casein (no HSA); geometric mean; read-out: Relative cAMP EC50, hGIPR;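 also: intracellular cAMP rise after 30 min at 37 °C read by HTRF against a standard curve, scaled between buffer alone (0%) and top control ligand concentration (100%), four-parameter fit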
# hGcgR, sequence (P47871 26-477): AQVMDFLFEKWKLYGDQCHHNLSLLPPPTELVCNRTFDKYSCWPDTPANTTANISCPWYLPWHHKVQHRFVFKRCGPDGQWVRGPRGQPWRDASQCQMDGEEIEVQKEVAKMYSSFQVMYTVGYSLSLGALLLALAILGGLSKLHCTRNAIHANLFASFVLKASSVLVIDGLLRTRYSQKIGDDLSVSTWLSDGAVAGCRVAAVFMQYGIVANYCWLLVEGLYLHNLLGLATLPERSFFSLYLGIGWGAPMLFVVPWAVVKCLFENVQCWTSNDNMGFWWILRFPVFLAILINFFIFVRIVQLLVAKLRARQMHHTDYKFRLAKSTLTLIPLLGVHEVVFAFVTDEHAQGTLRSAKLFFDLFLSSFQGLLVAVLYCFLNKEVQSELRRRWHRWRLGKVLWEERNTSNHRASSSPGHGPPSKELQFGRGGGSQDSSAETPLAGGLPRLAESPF
# human GcgR, sequence (P47871 26-477): as above
# T1 sequence (P43220 24-463): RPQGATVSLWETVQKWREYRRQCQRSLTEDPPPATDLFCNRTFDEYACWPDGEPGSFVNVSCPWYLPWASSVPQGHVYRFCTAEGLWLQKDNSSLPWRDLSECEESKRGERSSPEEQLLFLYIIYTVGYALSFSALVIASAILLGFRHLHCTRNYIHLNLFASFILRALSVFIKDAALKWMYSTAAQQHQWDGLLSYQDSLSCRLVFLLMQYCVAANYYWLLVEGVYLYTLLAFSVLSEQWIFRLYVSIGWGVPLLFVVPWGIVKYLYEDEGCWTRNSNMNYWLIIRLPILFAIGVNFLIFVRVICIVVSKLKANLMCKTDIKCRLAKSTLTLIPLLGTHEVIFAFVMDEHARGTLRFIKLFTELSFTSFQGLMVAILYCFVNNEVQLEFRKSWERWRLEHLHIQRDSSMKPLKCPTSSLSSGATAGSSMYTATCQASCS
Substance,EC50 (hGLP-1R [1]),EC50 (hGIPR [2]),EC50 (hGcgR),EC50 (hGLP-1R [3]),EC50 (human GcgR),EC50 (hGIPR [4])
H-[NMeY][Aib]QGT[αMeF]TSDYSILLDKIAAK([AEEA-AEEA-γGlu-C20 diacid])AFIEYLIEGGPSSGEPPPSEG-NH2 [Example 299],0.963 nM,40.2 nM,2.54 nM,380 nM,1700 nM,0.137 nM
Y[Aib]QGTFTSDFSK[αMeL]LDKK([AEEA-γGlu-C18 diacid])AQ[Aib]AFIEYLIE[Aib]GPSSGAPPPSGS-NH2 [Example 797],0.449 nM,16.7 nM,3.78 nM,102 nM,963 nM,0.0781 nM
Y[Aib]QGTFTSDFSK[αMeL]LDKK([AEEA-γGlu-C20 diacid])AQ[Aib]AFIEYLLEGGPSSGEPPPTEG-NH2 [Example 36],3.57 nM,170 nM,4.32 nM,1360 nM,1330 nM,0.482 nM
Y[Aib]QGTFTSDFSK[αMeL]LDKK([AEEA-γGlu-C20 diacid])AQ[Aib]AFIQWLLEGGPSSGAPPPSEG-NH2 [Example 39],2.13 nM,30.5 nM,10.1 nM,260 nM,1090 nM,0.299 nM
Y[Aib]QGTFTSDFSK[αMeL]LDKK([AEEA-γGlu-C20 diacid])AQ[Aib]AFIQYLLAGGPSSGEPPPSEG-NH2 [Example 27],2.33 nM,72.3 nM,8.91 nM,464 nM,1180 nM,0.41 nM
Y[Aib]QGTFTSDFS[Orn][αMeL]LDKK([AEEA-γGlu-C18 diacid])AQ[Aib]AFIEWLLEGGHSSGAPPPGGE-NH2 [Example 273],4.02 nM,21.8 nM,6.96 nM,516 nM,1770 nM,0.243 nM
Y[Aib]QGTFTSDFS[Orn][αMeL]LDKK([AEEA-γGlu-C18 diacid])AQ[Aib]AFIEWLLEGGHSSGEPPPSGE-NH2 [Example 124],6.14 nM,54.7 nM,2.92 nM,801 nM,567 nM,0.344 nM
Y[Aib]QGTFTSDFS[Orn][αMeL]LDKK([AEEA-γGlu-C18 diacid])AQ[Aib]AFIEYLIE[Aib]GPSSGAPPPSGS-NH2 [Example 796],0.602 nM,17.5 nM,5.3 nM,125 nM,1000 nM,0.098 nM
Y[Aib]QGTFTSDFS[Orn][αMeL]LDKK([AEEA-γGlu-γGlu-C18 diacid])AQ[Aib]AFIEYLLAGGPSSGEPPPSGS-NH2 [Example 153],7.09 nM,16.8 nM,14.7 nM,488 nM,1210 nM,0.218 nM
Y[Aib]QGTFTSDFS[Orn][αMeL]LDKK([γGlu-γGlu-C18 diacid])AQ[Aib]AFIEYLLEGGPSSGAPPPSGT-NH2 [Example 260],3.85 nM,12.4 nM,5.04 nM,160 nM,162 nM,0.251 nM
Y[Aib]QGTFTSDYSI[αMeL]LDKQAAK([AEEA-AEEA-γGlu-C20 diacid])QFIEYLIA[Aib]GPSSGEPPPSEG-NH2 [Example 349],0.555 nM,52.6 nM,5.12 nM,218 nM,2280 nM,0.152 nM
Y[Aib]QGTFTSDYSI[αMeL]LDKQAAK([AEEA-AEEA-γGlu-C20 diacid])QFVEWLLAGGPSSGEPPPGEG-NH2 [Example 320],2.58 nM,55.3 nM,6.87 nM,328 nM,1170 nM,0.274 nM
Y[Aib]QGTFTSD[4Pal]SK[αMeL]LDKK([AEEA-γGlu-C18 diacid])AQ[Aib]AFIEYLIA[Aib]GESSGEPPPSGE-NH2 [Example 286],3.45 nM,11.5 nM,2.2 nM,925 nM,228 nM,0.0845 nM
Y[Aib]QGTFTSD[4Pal]SK[αMeL]LDKK([AEEA-γGlu-C18 diacid])AQ[Aib]AFIEYLIE[Aib]GESSGEPPPSGE-NH2 [Example 281],1.6 nM,25.8 nM,13.7 nM,295 nM,1370 nM,0.154 nM
Y[Aib]QGTFTSD[4Pal]SQ[αMeL]LDKK([AEEA-γGlu-C18 diacid])AQ[Aib]AFIEYLLE[dA]GPSSGAPPPSGS-NH2 [Example 820],2.78 nM,17.5 nM,6.83 nM,299 nM,1270 nM,0.121 nM
Y[Aib]QGTFTSD[4Pal]SQ[αMeL]LDKK([AEEA-γGlu-C18 diacid])AQ[Aib]AFIEYLLE[dA]GPSSGAPPPSG[4Pal]-NH2 [Example 822],2.51 nM,18.1 nM,11.6 nM,322 nM,2100 nM,0.186 nM
Y[Aib]QGTFTSD[4Pal]SQ[αMeL]LDKK([AEEA-γGlu-C18 diacid])AQ[Aib]AFIE[αMeY]LIEGGPSSGAPPPSGS-NH2 [Example 838],0.379 nM,23.2 nM,20.7 nM,72.2 nM,3070 nM,0.225 nM
Y[Aib]QGTFTSD[4Pal]SQ[αMeL]LDKK([AEEA-γGlu-C18 diacid])AQ[αMe4Pal]AFIEWLIEGGPSSGAPPPSG[4Pal]-NH2 [Example 832],1.07 nM,18.6 nM,9.1 nM,209 nM,1360 nM,0.187 nM
Y[Aib]QGTFTSD[4Pal]SQ[αMeL]LDKK([AEEA-γGlu-C18 diacid])AQ[αMe4Pal]AFIEYLIAGGPSSGEPPPSGS-NH2 [Example 828],1.17 nM,14.9 nM,3.58 nM,114 nM,481 nM,0.149 nM
Y[Aib]QGTFTSD[4Pal]SQ[αMeL]LDKK([AEEA-γGlu-C18 diacid])AQ[αMe4Pal]AFIEYLIE[Aib]GPSSGAPPPSGS-NH2 [Example 810],2.09 nM,23.6 nM,3.3 nM,256 nM,540 nM,0.156 nM
Y[Aib]QGTFTSD[4Pal]SQ[αMeL]LDKK([AEEA-γGlu-C18 diacid])AQ[αMe4Pal]AFIEYLIE[dA]GPSSGAPPPSGS-NH2 [Example 829],1.15 nM,22.4 nM,2.41 nM,130 nM,325 nM,0.124 nM
Y[Aib]QGTFTSD[4Pal]SQ[αMeL]LDKK([AEEA-γGlu-C18 diacid])AQ[αMe4Pal]AFIE[αMeY]LIEGGPSSGAPPPEGS-NH2 [Example 852],0.871 nM,45.6 nM,2.26 nM,182 nM,1230 nM,0.34 nM
Y[Aib]QGTFTSD[4Pal]SQ[αMeL]LDKK([Glu-Glu-γGlu-C18 diacid])AQ[αMe4Pal]AFIEYLIE[Aib]GPSSGAPPPSGS-NH2 [Example 895],3.72 nM,34 nM,4.68 nM,599 nM,1250 nM,0.111 nM
Y[Aib]QGTFTSD[4Pal]SQ[αMeL]LDKK([Glu-γGlu-C18 diacid])AQ[αMe4Pal]AFIEYLIAGGPSSGAPPPSGE-NH2 [Example 1086],1.23 nM,21.2 nM,12 nM,496 nM,3140 nM,0.117 nM
